From US20060063930A1, “Compositions and methods comprising proteinase activated receptor antagonists” (priority 2004, published 2006)

Tests used:
[1] = test system: PAR-2; test: PAR signalling activity: calcium mobilization (Fluo-4) in response to peptide; type: cell-based; conditions: FIGS. 2A-2C
Description: Confluent HUVECs, Lewis lung carcinoma cells or U87-MG glioma cells or HT29 colon carcinoma cells were loaded for 30-60 minutes with the fluorescent dye Fluo-4. Final concentration 4 uM Fluo-4, 0.02% pluronic acid in physiological buffer. Cells were then washed with assay buffer, (HBSS containing 1 mM CaCl2, 1 mM MgSO4, and 2.5 mM probenecid). Cells were stimulated with various doses of PAR-2 activating peptide, PAR-1 activating peptide or ATP. Fluorescence was monitored using a Wallac 1470 fluorescent plate reader. (See Al-ani et. al Journal of Pharmacology and Experimental Therapeutics 290:2, 753-760)
Calcium mobilization curves of the PAR-2 agonist SLIGKV (ENMD-1003) (SEQ ID NO:52) compared with two truncated molecules LIGK (ENMD-1005) (SEQ ID NO:1) and LIGKV (ENMD-1007) (SEQ ID NO:2) are provided in FIG. 2A. […] Similar studies were performed on alanine substituted SLIGKV (ENMD-1003) (SEQ ID NO:52) peptides (FIGS. 2B and 2C).

[2] = test system: PAR-2; test: Inhibition of PAR-2 activating peptide (AP2) calcium signaling in cells pretreated with antagonist; type: cell-based, human; parameters: key to PAR-2 AP2 Signaling Treated/Control (T/C) / PAR-2 AP2 Signaling Treated/Control: AUC of calcium mobilization, treated ÷ control wells; conditions: for PAR-2 AP2 Signaling Treated/Control: mimetic antagonists, AUC of calcium mobilization treated/control, initially screened at 1 mM compound; for PAR-2 antagonist activity in vitro (in words): pretreated cells, then P2AP
Method in brief: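 LLC cells loaded with Fluo-4 (4 uM final), and U87-MG glioma cells loaded with FLIPR Calcium 3 dye with 2.5 mM probenecid, were pretreated with antagonist, then stimulated with PAR-2 activating peptide. Initial screening was at 1 mM. Calcium AUC of treated over control wells is reported as T/C.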

[3] = test system: BALB/c mice, arthritis; test: Anti-collagen II antibody/LPS arthritis in mice (hind feet thickness); type: in vivo, mouse; conditions: 200 mg/kg/day intraperitoneally for 7 days
Description: (§1) On day 0, BALB/c mice were injected intravenously with the 1-2 mg 1B11 monoclonal anti-collagen II antibody. On day 1, animals were injected intraperitoneally with 20 μg LPS, and treatment with PAR-2 antagonists (200 mg/kg/day, intraperitoneally) for 7 days. After treatment was completed, disease is quantified by measuring the thickness (swelling) in both hind feet of the mouse. This was compared to untreated mice (p<0.05 vs. vehicle control).

[4] = test system: ATP signaling; test: Inhibition of ATP calcium signaling in pretreated cells; type: cell-based; conditions: cells pretreated with antagonist
Description: (§2) In order to assess the potential of peptides and molecules selected above to block PAR-2 signaling, cells were pretreated with potential antagonist peptides for a predetermined amount of time and were subsequently treated with various GPCR agonists. Confluent Lewis lung carcinoma (LLC) cells were loaded for 30-60 minutes with the fluorescent dye Fluo-4. Final concentration 4 uM Fluo-4, 0.02% pluronic acid in physiological buffer. Cells were then washed with assay buffer, (HBSS containing 1 mM CaCl2, 1 mM MgSO4, and 2.5 mM probenecid). Cells were stimulated with various doses of PAR-2 activating peptide, PAR-1 activating peptide or ATP. Fluorescence was monitored using a Wallac 1470 fluorescent plate reader. (See Al-ani et. al Journal of Pharmacology and Experimental Therapeutics 290:2, 753-760). Additional compound screening was performed using U87-MG human glioma cells. In this assay cells were labeled with FLIPR Calcium 3 dye (Component A), which was dissolved in 10 mls of Assay Buffer without Probenecid. Loading buffer was prepared by diluting Component A with an additional 90 mls of Assay Buffer without Probenecid, giving a total volume of a 100 ml. […] Calcium signaling was then measured using a Flexstation II (Molecular Devices) following manufacturer's instructions. […]

[5] = target: T1, PAR-1 (Homo sapiens, UniProt P25116); test: Inhibition of PAR-1 activation peptide (SFLLRN) calcium signaling in pretreated cells; type: cell-based; conditions: cells pretreated with antagonist
T1 construct: endogenous in cells
T1 sequence (P25116 22-425): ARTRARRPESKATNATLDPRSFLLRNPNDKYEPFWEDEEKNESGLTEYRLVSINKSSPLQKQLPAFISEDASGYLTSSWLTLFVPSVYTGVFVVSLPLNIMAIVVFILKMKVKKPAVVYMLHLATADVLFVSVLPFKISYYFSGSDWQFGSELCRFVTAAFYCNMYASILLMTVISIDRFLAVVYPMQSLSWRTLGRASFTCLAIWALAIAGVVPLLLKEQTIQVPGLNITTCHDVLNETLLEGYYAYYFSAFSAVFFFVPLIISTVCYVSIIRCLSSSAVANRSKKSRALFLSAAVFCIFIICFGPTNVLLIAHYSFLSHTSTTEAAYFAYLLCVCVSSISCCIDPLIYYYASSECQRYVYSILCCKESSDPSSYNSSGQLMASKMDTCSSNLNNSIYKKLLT
Description: as §2

[6] = test system: BALB/c mice, LPS induced weight loss; test: Arthrogen-CIA induced body weight loss in mice; type: in vivo, mouse; conditions: 200 mg/kg/day intraperitoneally for 7 days
Description: as §1, with “i.v.” for “intravenously”, “mg/kg/day” for “mg/kg/day,”, “mice. This model results in significant weight loss associated with the administration of LPS.” for “mice (p<0.05 vs. vehicle control).”

[7] = target: T2, PAR-2 (Mus musculus, UniProt P55086); test: PAR-2 agonist peptide induced murine footpad edema model; type: in vivo; conditions: co-treatment in footpad, C57BL6 mice, 1 hour
T2 construct: from tissue; host or cells: footpad of living C57BL6 mice
T2 sequence (P55086 26-399): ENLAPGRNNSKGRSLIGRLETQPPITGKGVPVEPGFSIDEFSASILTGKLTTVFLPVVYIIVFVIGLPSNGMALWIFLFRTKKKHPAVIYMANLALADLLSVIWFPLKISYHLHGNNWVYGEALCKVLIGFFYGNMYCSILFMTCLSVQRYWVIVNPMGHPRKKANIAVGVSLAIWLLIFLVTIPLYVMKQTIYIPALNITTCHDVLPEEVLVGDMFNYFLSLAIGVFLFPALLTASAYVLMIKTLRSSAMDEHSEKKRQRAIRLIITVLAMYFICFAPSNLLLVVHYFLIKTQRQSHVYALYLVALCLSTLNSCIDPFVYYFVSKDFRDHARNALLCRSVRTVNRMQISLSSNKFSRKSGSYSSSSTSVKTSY
Description: C57BL6 mice were injected with 5-25 μg of SLIGKV (ENMD-1003) (SEQ ID NO:52) into their footpad, in the presence or absence of increasing amounts of various PAR-2 antagonists. One hour later, footpad (tarsus) thickness was measured to quantify inflammation (edema).
The inventors next assessed whether the LIGK (ENMD-1005) (SEQ ID NO:1) peptide had in vivo PAR-2 antagonistic activity. This was studied using an edema model where vascular permeability was induced by the PAR-2 agonist peptide. In this model, the PAR-2 peptide induces severe edema as previously reported (FIG. 6). This vascular response was blocked by co-treatment with the PAR-2 antagonist LIGK (ENMD-1005) (SEQ ID NO:1) (FIG. 6). Thus, LIGK (ENMD-1005) (SEQ ID NO:1) functions in vivo to block PAR-2 signaling.

[8] = test system: angiogenesis in Matrigel plug, C57/BL6 mice; test: In vivo Matrigel angiogenesis assay (FGF-2, hemoglobin content in the plug); parameters: species or system mouse; conditions: subcutaneously daily for 6 days

Row | Compound | Calcium mobilization / PAR-2 signaling activity (in words) [1] | PAR-2 AP2 Signaling Treated/Control [2] | PAR-2 antagonist activity in vitro (in words) [2] | other results
1 | SLIGKV [ENMD-1003, reference compound] | typical spike of calcium release followed by degradation of signal | – | – | –
2 | Br.CC(C)CC(=O)N1CCN(C(=O)CCCCCN)CC1 [ENMD-1068, 1-(4-(3-methylbutanoyl)piperazin-1-yl)-(6′-aminohexan-1-amide) hydrobromide] | – | 0.58 | inhibitor of PAR-2 signaling in vitro | Effect on inflammation / arthritis [3]: inhibited inflammation; Inhibitory effect on ATP signaling [4]: no inhibitory effects; Inhibitory effect on PAR-1 signaling [5]: no inhibitory effects
3 | SLIGKA [ENMD-1013] | robust signaling activity | – | – | –
4 | LIGKV [ENMD-1007] | Neither truncated molecule was able to induce calcium mobilization | – | demonstrated antagonist activity | –
5 | LIGK [ENMD-1005] | Neither truncated molecule was able to induce calcium mobilization | – | demonstrated antagonist activity | Effect on LPS induced weight loss [6]: abrogated this LPS induced weight loss; Block of AP2 signaling ([2]; 1 mM LIGK against 100 uM SLIGKV (FIG. 3)): completely blocked; IC50 ([2]; AP2 stimulated HT29 cells (FIG. 4)): < 500 µM; Effect on inflammation / arthritis [3]: inhibited inflammation; Effect on PAR-2 peptide induced edema (vascular response) [7]: blocked; Inhibitory effect on ATP signaling [4]: no inhibitory effect; Inhibitory effect on PAR-1 signaling [5]: no inhibitory effect; Inhibition of angiogenesis (hemoglobin content in the plug) ([8]; highest dose): more than 80%; Inhibition of angiogenesis (in words) [8]: dose dependent inhibition of angiogenesis
6 | CC(C)CC(=O)Nc1nc(CC(=O)NCCCCCN)cs1 [ENMD-1549, N-{4-[(5-Amino-pentylcarbamoyl)-methyl]-thiazol-2-yl}-3-methyl-butyramide] | – | 0.26 | – | –
7 | SLIAKV [ENMD-1011] | robust signaling activity | – | – | –
8 | NCCCCC(=O)Nc1ccc(C(=O)NCC2CCCCC2)cc1 [ENMD-1568, 4-(5-aminopentanamide)-N-(cyclohexylmethyl)-benzamide] | – | 0.92 | – | –
9 | NCCCCCNC(=O)Cc1csc(NC(=O)CC2CCCCC2)n1 [ENMD-1559, N-(5-amino-pentyl)-2-[2-(2-cyclohexyl-acetyl-amino)-thiazol-4-yl]-acetamide] | – | 0.52 | – | –
10 | NCCCCCNC(=O)c1ccc(C(=O)NCC2CCCCC2)cc1 [ENMD-1766, N^1-(5-aminopentyl)-N-4-(cyclohexylmethyl)-terephthalamide] | – | 0.73 | – | –
